Publication PMC3319192 (Molecular Pharmaceutics, 2012)

Experiments:
[1] = target: T1, wildtype OATP1B3 (Homo sapiens, UniProt Q9NPD5)
T1 sequence (Q9NPD5 1-702): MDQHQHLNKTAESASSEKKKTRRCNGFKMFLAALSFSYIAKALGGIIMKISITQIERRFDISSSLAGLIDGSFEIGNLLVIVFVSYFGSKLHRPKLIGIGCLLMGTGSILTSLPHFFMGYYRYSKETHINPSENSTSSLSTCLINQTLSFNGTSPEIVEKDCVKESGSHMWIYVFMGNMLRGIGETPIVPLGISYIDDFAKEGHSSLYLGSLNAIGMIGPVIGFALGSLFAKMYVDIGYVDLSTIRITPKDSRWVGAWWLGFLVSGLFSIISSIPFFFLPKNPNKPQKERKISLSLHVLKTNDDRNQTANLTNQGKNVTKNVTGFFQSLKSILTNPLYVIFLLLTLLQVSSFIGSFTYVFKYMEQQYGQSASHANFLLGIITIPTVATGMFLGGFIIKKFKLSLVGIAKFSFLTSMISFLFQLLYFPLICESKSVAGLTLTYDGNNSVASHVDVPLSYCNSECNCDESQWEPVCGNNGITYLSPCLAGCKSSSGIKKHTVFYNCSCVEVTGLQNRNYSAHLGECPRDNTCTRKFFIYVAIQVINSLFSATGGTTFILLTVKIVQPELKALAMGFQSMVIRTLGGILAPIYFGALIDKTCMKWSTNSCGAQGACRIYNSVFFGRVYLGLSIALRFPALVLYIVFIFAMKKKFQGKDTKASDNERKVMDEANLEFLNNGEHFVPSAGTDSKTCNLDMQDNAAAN

[2] = target: T2, OATP1B1 A45G/L545S/T615I (Homo sapiens, UniProt Q9Y6L6, A45G/L545S/T615I)
T2 sequence (Q9Y6L6 1-691 A45G/L545S/T615I): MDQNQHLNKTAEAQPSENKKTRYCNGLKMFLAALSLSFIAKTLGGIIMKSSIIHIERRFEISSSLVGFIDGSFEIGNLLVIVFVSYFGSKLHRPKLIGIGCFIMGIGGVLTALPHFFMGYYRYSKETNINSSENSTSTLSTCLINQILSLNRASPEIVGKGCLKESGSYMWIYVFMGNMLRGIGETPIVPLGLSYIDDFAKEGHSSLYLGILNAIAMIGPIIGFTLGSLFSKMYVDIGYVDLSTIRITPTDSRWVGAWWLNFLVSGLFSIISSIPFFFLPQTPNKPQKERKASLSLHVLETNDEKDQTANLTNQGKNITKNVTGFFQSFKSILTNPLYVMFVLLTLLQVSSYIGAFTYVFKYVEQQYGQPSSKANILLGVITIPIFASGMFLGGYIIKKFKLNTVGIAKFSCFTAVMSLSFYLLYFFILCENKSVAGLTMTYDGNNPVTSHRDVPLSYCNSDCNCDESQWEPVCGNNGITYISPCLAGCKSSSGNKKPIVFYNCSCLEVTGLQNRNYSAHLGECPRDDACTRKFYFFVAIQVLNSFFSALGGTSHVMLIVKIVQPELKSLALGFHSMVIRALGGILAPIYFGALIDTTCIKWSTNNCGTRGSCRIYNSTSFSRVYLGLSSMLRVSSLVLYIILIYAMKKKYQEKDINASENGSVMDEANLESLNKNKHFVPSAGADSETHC

Km [1]: 6.5 ± 2 µM
Km [2]: 15.4 ± 4.2 µM
Substance: L-aspartyl-L-tryosyl-L-methionylgylcyl-L-tryptophyl-L-methionyl-L-aspartyl-L-phenylalaninamide hydrogen sulfate ester [CCK-8]
